Legend:
Type in all cases: in vivo
scalp hair of a human = assay: hair styling gel with the analog applied daily to the scalp, hair colour; details: 0.001 mg/ml in hair styling gel, approximately 2 ml daily to scalp, after a few months; self-observation
Experimental: [Sar9,Met (02)11 ]-substance P was formulated in a hair styling gel at a concentration of 0.001 mg/ml and approximately 2 ml were applied daily to my scalp. […] I estimate my head of hair to be about 40% darker. This observation is consistent with results observed on radiation-exposed mice that had been given the substance P analog.

human [1] = assay: sleep pattern
Experimental: I have 6 hours sleep on a regular basis. Approximately a week ago, after taking the analog daily for 2 weeks, I was getting 5 hours sleep.

radiation-exposed mice = assay: hair regrowth in radiation-exposed mice given the substance P analog
human [2] = assay: running speed (150M build-ups, timed 200M run)
Excerpt: After taking the analog, I “felt” much faster in my 150M build-ups than previously.

human [3] = assay: visual accommodation (adjustment time between long and near vision)
human [4] = assay: short-term memory; details: since beginning to apply the analog; names and telephone numbers
Excerpt: I can remember people's names and telephone numbers more readily.

human [5] = assay: residual muscle pain after a very hard workout
Excerpt: I ran five miles with four 150M build-ups and threw a 6 Kg shot-put for the first time. This workout was followed by a session of weightlifting. Before I began treatment with the substance P analog I would take Advil™ at least twice on the day of the work out to prevent muscle pain.

[Sar9,Met (02)11 ]-substance P
head of hair darker (estimate) (scalp hair of a human): about 40%
overall color of hair (scalp hair of a human): becoming more like my original brown color
quality of sleep, later (human [1]; about a week later (now)): the vivid dreams and less waking up continue
hours of sleep per night, later (human [1]; about a week later (now), reverted): six
quality of sleep (human [1]; after taking the analog daily for 2 weeks): deeper with more vivid dreams and less “waking up.”
hours of sleep (human [1]; after taking the analog daily for 2 weeks, regular basis 6 hours): 5 h
regrowth of hair lost upon radiation exposure (radiation-exposed mice; radiation-exposed mice given the substance P analog): regrew hair that was lost upon radiation exposure
colour of new hair growth (radiation-exposed mice; radiation-exposed mice, versus non-exposed area): darker than in the non-exposed area
perceived speed in 150M build-ups (human [2]; after taking the analog, versus previously): much faster
time in a 200M run (human [2]; timed run): significantly improved
adjustment time between long and near vision after 97 days (human [3]; after 97 days of administration): little adjustment time
adjustment time between long and near vision (human [3]; during administration): shorter and continues to diminish
memory problems (human [4]): less “middle-aged” memory problems
reduction in residual muscle pain (human [5]; after a very hard workout, self-observation): very large reduction
tightness or soreness in right arm/shoulder from throwing the shot (human [5]; after taking the analog): nor did I experience tightness or soreness
muscle pain after the hard workout (human [5]; five mile run, four 150M build-ups, 6 Kg shot-put, weightlifting, after taking the analog): no muscle pain

Reference: patent US20080167248A1, “Anti-Aging Effects Of Substance P” (IMMUNEREGEN BIOSCIENCES, INC., priority 2004, published 2008)
